Here are results for 2 molecules from patent US20160346249A1 (priority 2012, published 2016).

Molecules are shown by their SMILES. Where two headings read alike, the source gives them in different places.

A short description of data set [1]: NADPH dependent metabolism, rat liver microsomes. The format is in vitro ADME. The following applies: RLM, from EB-1010 10 μM. How it is done:
Bicifadine (10 μM) was used as the positive control and the formation of the lactam metabolites of bicifadine (M-12) was monitored.

The nature of data set [2]: Acute intravenous or oral mouse bioavailability study. The format is in vivo. The following applies: plasma, fasted male mice, oral 6 mg/kg vs IV 5 mg/kg. On the procedure:
Fasted male mice were used in this study. Concentrations were determined using an LC/MS/MS assay following liquid-liquid extraction of plasma samples. Bioavailability was calculated using the mean normalized AUC0-∞ values obtained following oral administration of 6 mg/kg relative to the mean normalized AUC0-∞ at 5 mg/kg IV.

The nature of data set [3]: Rat developmental toxicity study with toxicokinetics. As to conditions: for AUC(0-t) / Cmax / Tmax: female, Crl:CD(SD)IGS BR, rat, in vivo, pregnant rats; for AUC(0-t): read-out: AUC0-24. The data set is classed as in vivo. From the text: For the toxicology assessment, there were twenty-five mated females/group.
Females that delivered early were necropsied on the day of delivery. […] The fetuses were weighed, sexed, and examined for external, visceral, and skeletal malformations and developmental variations.

The nature of data set [4]: Female rat fertility study. How it is done:
Physical signs, body weight, and food consumption were recorded periodically. Females were housed for up to 20 nights 1:1 with untreated males following 3 weeks of treatment. During cohabitation, vaginal lavages were performed daily. The presence of sperm in the lavage or a vaginal plug was considered positive evidence of mating. […] The day of confirmed mating was considered GD 0. Females with a confirmed mating were euthanized between GD 15 and 17. The uterus of each female was examined to determine pregnancy status. If there was no gross evidence of pregnancy, the uterus was stained with ammonium sulfide to visualize any early implantation sites. Corpora lutea per female were counted. Uterine implantations were counted, and each was classified as a live fetus, dead fetus, or a resorption. Fetuses were euthanized by rapid induction of hypothermia and discarded without further examination.

[5] abbreviates: po, 3 mg/kg/day, 3 mg/kg/day, GD 6.
[6] abbreviates: po, 3 mg/kg/day, 3 mg/kg/day, GD 17.
Where [7] appears, read: po, 20 mg/kg/day, 20 mg/kg/day, GD 6.
Setting [8] is: po, 20 mg/kg/day, 20 mg/kg/day, GD 17.

For the molecule `O=C1NCC2(c3ccc(Cl)c(Cl)c3)CC12` (stereo not drawn) [EB-10101, 5-(3,4-dichloro-phenyl)-3-aza-bicyclo[3.1.0]hexan-2-one], in data set [1], the “amount formed with NADPH vs without NADPH” value is on record as roughly 5 fold.
As a reminder, the bioavailability is dose-corrected exposure relative to a reference, in per cent. A word on the Cmax: it is the highest concentration seen after dosing. The Tmax is the time from dosing to the highest level. In turn, `Clc1ccc([C@]23CNC[C@H]2C3)cc1Cl` [amitifadine, (+)-1-(3,4-dichlorophenyl)-3-azabicyclo[3.1.0]hexane] registered a bioavailability in data set [2] of roughly 16%. The AUC(0-t) in data set [3] (oral, 10 mg/kg/day, 10 mg/kg/day, GD 17) is 11200 ng·h/mL; in data set [3] (setting [5]) it was 2570 ng·h/mL; in data set [3] (setting [6]) it was 2620 ng·h/mL; in data set [3] (po, 10 mg/kg/day, 10 mg/kg/day, GD 6), 10900 ng·h/mL; in data set [3] (setting [7]), 19500 ng·h/mL; in data set [3] (setting [8]) it was 19700 ng·h/mL. Further, the Cmax was 387 ng/mL in data set [3] (setting [5]); 397 ng/mL in data set [3] (setting [6]); 1300 ng/mL in data set [3] (po, 10 mg/kg/day, 10 mg/kg/day, GD 17); 1970 ng/mL in data set [3] (setting [7]); 1890 ng/mL in data set [3] (setting [8]). The Tmax worked out at 2 h in data set [3] (po, 3 mg/kg/day, GD 6); 2 h in data set [3] (po, 10 mg/kg/day, GD 6); 2 h in data set [3] (po, 20 mg/kg/day, GD 6). Besides, the “NOEL for developmental toxicity” value in data set [3] (oral gavage GD 6-17) is 10 mg/kg/day. Moreover, the body weight loss in data set [4] (34 mg/kg/day, first 4 days) was -26 g. In data set [4] (34 mg/kg/day, first 4 days), the decreased food consumption is listed as −50%. For the same molecule, the NOEL reproductive performance in data set [4] (female rats) was no less than 34 mg/kg/day. In data set [4] (female, Crl:CD(SD), rat, in vivo), the NOEL general toxicity worked out at 9 mg/kg/day.
